Like-named read-outs stand apart in the source and are kept apart here.
Key:
HLA-E*01:03 = HLA-E*01:03 (Homo sapiens, UniProt P13747); assay type: binding; settings: tested at least two times, median, Figure 1
TCR KK50.4 [1] = assay type: cell-based; settings: 100 μM peptide, median, n=3 with two technical replicates, Figure 3B, C
NKG2A/CD94 [2] = target: T1, NKG2A/CD94 (Homo sapiens, UniProt P26715+Q13241); settings: cited from earlier work
primary NKG2C+ NK cells = settings: stimulation with HLA-E/peptide presenting cells, compared to other position 8 variants from clinical CMV isolates; cited from earlier work
TCR 6 = experiment: HLA-E*01:03 tetramer (TM) staining of TCR 6 transduced Jurkat cells; settings: for Interaction of thermal exchanged HLA-E TM/peptide complex with TCR 6, in words: thermal exchanged HLA-E*01:03 TM staining on Jurkat TCR 6 cells, tested once, Figure 2C-E
NKG2A/CD94 [3] = target: T1, NKG2A/CD94; assay type: binding
TCR KK50.4 [4] = experiment: HLA-E*01:03 tetramer (TM) staining of TCR KK50.4 transduced Jurkat cells; settings: for Interaction of thermal exchanged HLA-E TM/peptide complex with TCR KK50.4, in words: thermal exchanged HLA-E*01:03 TM staining on Jurkat TCR KK50.4 cells, tested once, Figure 2C
[5] = UV exchange 1 hr at 4°C, ELISA absorbance 450 nm
[6] = S/P relative to positive control […] or […]
[7] = conventional HLA-E TMs folded with wildtype peptide, Figure 2B

T1 sequence (P26715 whole entry): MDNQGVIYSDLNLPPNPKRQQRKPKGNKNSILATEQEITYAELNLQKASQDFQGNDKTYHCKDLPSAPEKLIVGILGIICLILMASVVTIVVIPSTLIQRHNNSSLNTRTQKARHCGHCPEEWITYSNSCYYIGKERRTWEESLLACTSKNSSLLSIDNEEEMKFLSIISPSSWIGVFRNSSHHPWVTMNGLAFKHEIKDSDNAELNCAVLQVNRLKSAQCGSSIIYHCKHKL
T1 sequence (Q13241 whole entry): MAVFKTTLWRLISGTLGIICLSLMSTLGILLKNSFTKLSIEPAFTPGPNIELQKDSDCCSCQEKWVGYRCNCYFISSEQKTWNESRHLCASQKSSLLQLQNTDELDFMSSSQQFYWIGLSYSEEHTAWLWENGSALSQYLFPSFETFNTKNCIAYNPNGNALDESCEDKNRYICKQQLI

## VMAPRTPIL
HLA-E*01:03; [5]
  Peptide binding affinity for HLA-E*01:03 (signal to positive, S/P, ratio), in words: strong binders (The S/P thresholds to define binders or strong binders are 0.08 and 0.18, respectively)

## VMAPRTLIF
TCR KK50.4 [1]
  TCR KK50.4 triple reporter activation, in words: still induced TCR KK50.4 activation

## VMAPRTLFL
NKG2A/CD94 [2]
  Level of NKG2A/CD94 signaling among VL9-peptides: highest level of NKG2A/CD94 signaling
Primary NKG2C+ NK cells
  CD107a expression and cytokine secretion of primary NKG2C+ NK cells: highest level of CD107a expression and cytokine secretion

## VMAPRALIL
TCR 6
  Interaction of thermal exchanged HLA-E TM/peptide complex with TCR 6, in words: interacted

## VLAPRTPLL [VLAPRTLLL Pro 7]
HLA-E*01:03; [6]
  Peptide binding affinity for HLA-E*01:03 (signal to positive, S/P, ratio), in words: strong binders (key: The S/P thresholds to define binders or strong binders are 0.08 and 0.18, respectively; The S/P thresholds to define binders or strong binders are 0.08 and 0.18, respectively)

## VLAPRTLLL [reference compound]
HLA-E*01:03; [6]
  Peptide binding affinity for HLA-E*01:03 (signal to positive, S/P, ratio), in words: high affinity
NKG2A/CD94 [3]
  Interaction of conventional HLA-E TM with NKG2A/CD94, in words: can interact
TCR 6; [7]
  Interaction of conventional HLA-E TM with TCR 6, in words: can interact
TCR KK50.4 [4]; [7]
  Interaction of conventional HLA-E TM with TCR KK50.4, in words: could only interact with the HLA-E/[…] complex

## VLAPRRLLL [VLAPRTLLL Arg 6]
HLA-E*01:03; [6]
  Peptide binding affinity for HLA-E*01:03 (signal to positive, S/P, ratio), in words: could not bind

## VLAPRTRLL [VLAPRTLLL Arg 7]
HLA-E*01:03; [6]
  Peptide binding affinity for HLA-E*01:03 (signal to positive, S/P, ratio), in words: could not bind

## VLAPRTDLL [VLAPRTLLL Asp 7]
HLA-E*01:03; [6]
  Peptide binding affinity for HLA-E*01:03 (signal to positive, S/P, ratio), in words: could not bind

## VLAPRTLLA [VLAPRTLLL Ala 9]
HLA-E*01:03; [6]
  Peptide binding affinity for HLA-E*01:03 (signal to positive, S/P, ratio), in words: could not bind

## VLAPRDLLL [VLAPRTLLL Asp 6]
HLA-E*01:03; [6]
  Peptide binding affinity for HLA-E*01:03 (signal to positive, S/P, ratio), in words: could not bind

## VMAPRTLIW
TCR 6
  Interaction of thermal exchanged HLA-E TM/peptide complex with TCR 6, in words: not TCR 6
TCR KK50.4 [4]
  Interaction of thermal exchanged HLA-E TM/peptide complex with TCR KK50.4, in words: recognized by TCR KK50.4

## VMAARTLIL
TCR KK50.4 [4]
  Interaction of thermal exchanged HLA-E TM/peptide complex with TCR KK50.4, in words: interacted

## VLAPRPLLL [VLAPRTLLL Pro 6]
HLA-E*01:03; [6]
  Peptide binding affinity for HLA-E*01:03 (signal to positive, S/P, ratio), in words: strong binders (key: The S/P thresholds to define binders or strong binders are 0.08 and 0.18, respectively; The S/P thresholds to define binders or strong binders are 0.08 and 0.18, respectively)

## VLAPRTLGL [VLAPRTLLL Gly 8]
HLA-E*01:03; [6]
  Peptide binding affinity for HLA-E*01:03 (signal to positive, S/P, ratio), in words: could not bind

## VMAPRPLIL
HLA-E*01:03; [5]
  Peptide binding affinity for HLA-E*01:03 (signal to positive, S/P, ratio), in words: strong binders (The S/P thresholds to define binders or strong binders are 0.08 and 0.18, respectively)
TCR 6
  Interaction of thermal exchanged HLA-E TM/peptide complex with TCR 6, in words: interacted

Reference: publication PMC12041767 (Journal of immunology (Baltimore, Md. : 1950), 2025)
